# Laboratory results from patent US6737383B1, “Herbicidal oxadiazolidines” (priority 1999, dated 2004).
# What was measured:
# [1] = test system: wheat; experiment: Test B pre/postemergence wheat; type: in vivo, Triticum aestivum
# Summary of the method: (§1)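 Test chemicals in a non-phytotoxic solvent mixture with surfactant were sprayed preemergence onto planted seeds and postemergence onto plants 2 to 18 cm tall (1- to 4-leaf stage). After twelve to sixteen days in a greenhouse, injury was visually rated against untreated controls from 0 (no effect) to 10 (complete control).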
# [2] = test system: cocklebur; experiment: Test B pre/postemergence cocklebur; type: in vivo, Xanthium strumarium
# Summary of the method: as §1
# [3] = test system: sugar beet; experiment: Test B pre/postemergence sugar beet; type: in vivo, Beta vulgaris
# Summary of the method: as §1
# [4] = test system: giant foxtail; experiment: Test B pre/postemergence giant foxtail; type: in vivo, Setaria faberii
# Summary of the method: as §1
# [5] = test system: surinam grass; experiment: Test B pre/postemergence surinam grass; type: in vivo, Brachiaria decumbens
# Summary of the method: as §1
# [6] = test system: velvetleaf; experiment: Test B pre/postemergence velvetleaf; type: in vivo, Abutilon theophrasti
# Summary of the method: as §1
# [7] = test system: morningglory; experiment: Test B pre/postemergence morningglory; type: in vivo, Ipomoea hederacea
# Summary of the method: as §1
# [8] = test system: blackgrass; experiment: Test B pre/postemergence blackgrass; type: in vivo, Alopecurus myosuroides
# Summary of the method: as §1
# [9] = test system: rice; experiment: Test B flood test rice; type: in vivo, Oryza sativa
# Summary of the method: (§2)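 Flood test on plants grown to the 2-leaf stage; treated plants kept in greenhouse twelve to sixteen days, then visually rated against controls on a 0 (no effect) to 10 (complete control) scale.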
# [10] = test system: duck salad; experiment: Test B flood test duck salad; type: in vivo, Heteranthera limosa
# Summary of the method: as §2
# [11] = test system: purple nutsedge; experiment: Test B pre/postemergence purple nutsedge; type: in vivo, Cyperus rotundus
# Summary of the method: as §1
# [12] = test system: pigweed; experiment: Test B pre/postemergence pigweed; type: in vivo, Amaranthus retroflexus
# Summary of the method: as §1
# [13] = test system: bedstraw; experiment: Test B pre/postemergence bedstraw; type: in vivo, Galium aparine
# Summary of the method: as §1
# [14] = test system: bamyardgrass; experiment: Test B flood test barnyardgrass; type: in vivo, Echinochloa crus-galli
# Summary of the method: as §2
# [15] = test system: wild oat; experiment: Test B pre/postemergence wild oat; type: in vivo, Avena fatua
# Summary of the method: as §1
# [16] = test system: corn; experiment: Test B pre/postemergence corn; type: in vivo, Zea mays
# Summary of the method: as §1
# [17] = test system: soybean; experiment: Test B pre/postemergence soybean; type: in vivo, Glycine max
# Summary of the method: as §1
# [18] = test system: smallflower flatsedge; experiment: Test B flood test smallflower flatsedge; type: in vivo, Cyperus difformis
# Summary of the method: as §2
# [19] = test system: rape; experiment: Test B pre/postemergence rape; type: in vivo, Brassica napus
# Summary of the method: as §1
# [20] = test system: crabgrass; experiment: Test B pre/postemergence crabgrass; type: in vivo, Digitaria sanguinalis
# Summary of the method: as §1
# [21] = Preemergence, Rate 62 g/ha, scale of 0 to 10 where 0 is no effect and 10 is complete control
# [22] = Preemergence, Rate 250 g/ha, scale 0 to 10, 0 is no effect, 10 is complete control
# [23] = Rate 125 g/ha, Postemergence, scale 0 to 10
# [24] = Preemergence, Rate 125 g/ha, 0 is no effect, 10 is complete control
# [25] = Rate 62 g/ha, Postemergence, scale of 0 to 10 where 0 is no effect and 10 is complete control
# [26] = Rate 62 g/ha, headed Pre-emergence (flood test species), scale 0 to 10 (0 no effect, 10 complete control)
# [27] = Rate 125 g/ha, Pre-emergence, flood test species, scale 0 to 10 where 0 is no effect and 10 is complete control
# [28] = Rate 250 g/ha, Pre-emergence, flood-test species, scale 0 to 10, 0 is no effect, 10 is complete control
# [29] = Rate 500 g/ha, headed Pre-emergence (flood test species), scale 0 to 10 (0 no effect, 10 complete control)
structure (smiles),measurement,setting,value
Cc1ccccc1-n1c(=O)on(C(=O)N(c2ccc(F)cc2Cl)C(C)C)c1=O [Compound 186],Wheat plant response rating,[1]; [21],0
same,Wheat plant response rating,[1]; [22],0
same,Wheat plant response rating,[1]; [23],0
same,"Plant response rating (0 to 10; 0 is no effect, 10 is complete control), Wheat","[1]; Rate 250 g/ha, Postemergence",0
same,Cocklebur plant response rating,[2]; [21],0
same,Cocklebur plant response rating (0 to 10 scale),[2]; [24],0
same,Cocklebur plant response rating,[2]; [22],0
same,Cocklebur plant response rating,[2]; [25],0
same,Cocklebur plant response rating,[2]; [23],0
same,"Plant response rating (0 to 10; 0 is no effect, 10 is complete control), Cocklebur","[2]; Rate 250 g/ha, Postemergence",0
same,Sugarbeets plant response rating,[3]; [21],0
same,Sugarbeets plant response rating (0 to 10 scale),[3]; [24],0
same,Sugarbeets plant response rating,[3]; [22],0
same,Sugarbeets plant response rating,[3]; [25],0
same,Sugarbeets plant response rating,[3]; [23],0
same,"Plant response rating (0 to 10; 0 is no effect, 10 is complete control), Sugarbeets","[3]; Rate 250 g/ha, Postemergence",0
same,Giant foxtail plant response rating,[4]; [21],5
same,Giant foxtail plant response rating (0 to 10 scale),[4]; [24],9
same,Giant foxtail plant response rating,[4]; [22],9
same,Giant foxtail plant response rating,[4]; [25],0
same,Giant foxtail plant response rating,[4]; [23],0
same,"Plant response rating (0 to 10; 0 is no effect, 10 is complete control), Giant foxtail","[4]; Rate 250 g/ha, Postemergence",0
same,B. signalgrass plant response rating,[5]; [21],0
same,B. signalgrass plant response rating (0 to 10 scale),[5]; [24],0
same,B. signalgrass plant response rating,[5]; [22],0
same,B. signalgrass plant response rating,[5]; [25],0
same,B. signalgrass plant response rating,"[5]; Rate 125 g/ha, Postemergence, scale 0 (no effect) to 10 (complete control)",0
same,"Plant response rating, B. signalgrass","[5]; Rate 250 g/ha, Postemergence, scale 0 to 10, 0 is no effect, 10 is complete control",0
same,Velvetleaf plant response rating,[6]; [21],0
same,Velvetleaf plant response rating,[6]; [22],2
same,Velvetleaf plant response rating,[6]; [23],0
same,"Plant response rating (0 to 10; 0 is no effect, 10 is complete control), Velvetleaf","[6]; Rate 250 g/ha, Postemergence",0
same,Morningglory plant response rating,[7]; [21],0
same,Morningglory plant response rating (0 to 10 scale),[7]; [24],0
same,Morningglory plant response rating,[7]; [22],0
same,Morningglory plant response rating,[7]; [25],1
same,Morningglory plant response rating,[7]; [23],2
same,"Plant response rating (0 to 10; 0 is no effect, 10 is complete control), Morningglory","[7]; Rate 250 g/ha, Postemergence",2
same,Blackgrass plant response rating,[8]; [21],0
same,Blackgrass plant response rating (0 to 10 scale),[8]; [24],0
same,Blackgrass plant response rating,[8]; [22],3
same,Blackgrass plant response rating,[8]; [25],0
same,Blackgrass plant response rating,[8]; [23],0
same,"Plant response rating (0 to 10; 0 is no effect, 10 is complete control), Blackgrass","[8]; Rate 250 g/ha, Postemergence",4
same,Rice plant response rating,[9]; [26],0
same,Rice plant response rating,[9]; [27],0
same,Rice plant response rating,[9]; [28],0
same,"Plant response rating, Rice",[9]; [29],0
same,Ducksalad plant response rating,[10]; [26],0
same,Ducksalad plant response rating,[10]; [27],0
same,Ducksalad plant response rating,[10]; [28],0
same,"Plant response rating, Ducksalad",[10]; [29],0
same,Nutsedge plant response rating,[11]; [21],0
same,Nutsedge plant response rating (0 to 10 scale),[11]; [24],0
same,Nutsedge plant response rating,[11]; [25],0
same,Nutsedge plant response rating,[11]; [23],0
same,"Plant response rating (0 to 10; 0 is no effect, 10 is complete control), Nutsedge","[11]; Rate 250 g/ha, Postemergence",2
same,Redroot pigweed plant response rating,[12]; [21],0
same,Redroot pigweed plant response rating (0 to 10 scale),[12]; [24],0
same,Redroot pigweed plant response rating,[12]; [22],2
same,Redroot pigweed plant response rating,[12]; [25],0
same,Redroot pigweed plant response rating,[12]; [23],0
same,"Plant response rating (0 to 10; 0 is no effect, 10 is complete control), Redroot pigweed","[12]; Rate 250 g/ha, Postemergence",0
same,Bedstraw plant response rating,[13]; [21],0
same,Bedstraw plant response rating (0 to 10 scale),[13]; [24],0
same,Bedstraw plant response rating,[13]; [22],0
same,Bedstraw plant response rating,[13]; [25],0
same,Bedstraw plant response rating,[13]; [23],0
same,"Plant response rating (0 to 10; 0 is no effect, 10 is complete control), Bedstraw","[13]; Rate 250 g/ha, Postemergence",8
same,Barnyardgrass plant response rating,[14]; [26],0
same,Barnyardgrass plant response rating,[14]; [27],0
same,Barnyardgrass plant response rating,[14]; [28],0
same,"Plant response rating, Barnyardgrass",[14]; [29],0
same,Wild oats plant response rating,[15]; [21],0
same,Wild oats plant response rating,[15]; [22],0
same,Wild oats plant response rating,[15]; [23],0
same,"Plant response rating (0 to 10; 0 is no effect, 10 is complete control), Wild oats","[15]; Rate 250 g/ha, Postemergence",0
same,Corn plant response rating,[16]; [21],0
same,Corn plant response rating (0 to 10 scale),[16]; [24],0
same,Corn plant response rating,[16]; [22],0
same,Corn plant response rating,[16]; [25],0
same,Corn plant response rating,[16]; [23],0
same,"Plant response rating (0 to 10; 0 is no effect, 10 is complete control), Corn","[16]; Rate 250 g/ha, Postemergence",0
same,Soybean plant response rating,[17]; [21],0
same,Soybean plant response rating (0 to 10 scale),[17]; [24],0
same,Soybean plant response rating,[17]; [22],0
same,Soybean plant response rating,[17]; [25],1
same,Soybean plant response rating,[17]; [23],1
same,"Plant response rating (0 to 10; 0 is no effect, 10 is complete control), Soybean","[17]; Rate 250 g/ha, Postemergence",2
same,S. Flatsedge plant response rating,[18]; [26],0
same,S. Flatsedge plant response rating,[18]; [27],0
same,S. Flatsedge plant response rating,[18]; [28],0
same,S. Flatsedge plant response rating,"[18]; Rate 500 g/ha, Pre-emergence, flood test species, scale 0 to 10 (0 no effect, 10 complete control)",0
same,Rape plant response rating,[19]; [21],0
same,Rape plant response rating (0 to 10 scale),[19]; [24],0
same,Rape plant response rating,[19]; [22],0
same,Rape plant response rating,[19]; [25],0
same,Rape plant response rating,[19]; [23],0
same,"Plant response rating (0 to 10; 0 is no effect, 10 is complete control), Rape","[19]; Rate 250 g/ha, Postemergence",0
same,Crabgrass plant response rating,[20]; [21],2
same,Crabgrass plant response rating (0 to 10 scale),[20]; [24],6
same,Crabgrass plant response rating,[20]; [22],6
same,Crabgrass plant response rating,[20]; [25],0
same,Crabgrass plant response rating,[20]; [23],0
same,"Plant response rating (0 to 10; 0 is no effect, 10 is complete control), Crabgrass","[20]; Rate 250 g/ha, Postemergence",2
